# Source: US9688709B2, “Phosphaplatins and their use for treatment of cancers” (OHIO UNIVERSITY, priority 2010, dated 2017)
# What was measured:
# [1] = tested on: PC-3, human metastatic prostate cancer cells; assay: CyQUANT cell proliferation assay, PC-3; format: cell-based; conditions: PC-3, 72-hour treatment
# Description: (§1) In these experiments, desired number of cells were exposed to phosphaplatins of different concentrations for 72 hr. before measuring the DNA content. Because the DNA content is proportional to the number of surviving cells, the assay provides a quantitative measure of proliferating cells. The technique is described in detail in Jones et al., “Sensitive determination of cell number using the CyQUANT cell proliferation assay,” J. Immunol. Methods, vol. 254, pp. 85-98 (2001).
# (§2) In TABLES 1-5, except where actual error values are given, each reported value is assumed to have an error not greater than ±15% of the reported value; and unless otherwise specified, the data were obtained from clonogenic assays.
# [2] = tested on: A2780/C30, epithelial human ovarian cancer resistant to 30 μM cisplatin and 100 μM carboplatin; assay: Clonogenic assay, A2780/C30 cells; format: cell-based; conditions: A2780/C30, 1 hour treatment
# Method: (§3) To determine the relative activities of the phosphaplatins of formulas (I)-(VI), each stereoisomer was tested through in vitro clonogenic assays using human ovarian cancer cells, human colon cancer cells, and human head-and-neck cancer cells. […] Cells were cultured on monolayer using RPMI 1640 supplemented with 10% fetal bovine serum, 2 mM glutamine, 0.25 units/mL insulin and penicillin/streptomycin (100 units/mL) in a 37° C. incubator continuously gassed with 5% CO2. Cells were subcultured using 0.0625% trypsin in HBSS to maintain cells in exponential cell growth.
# (§4) Half-maximal inhibitory concentration (IC50) values were determined using a clonogenic assay or a CyQUANT® cell proliferation assay. In the clonogenic assay, for example, 500-700 A2780 cells from a single cell suspension were plated onto 60 mm petri plates 24 hours before treatment with the platinum compounds to permit cell attachment. On the day of treatment with the platinum compounds described in the above Synthesis Examples, the medium was decanted and was replaced with the appropriate concentration of phosphaplatin compounds (from 50 nM to 75 μM) at three different time points, […] Triplicate plates were set up for each platinum compound concentration. After the 24-hour treatment, the medium containing the platinum compounds was decanted and was replaced with fresh medium. These plates were returned to the 37° C. incubator for 7 days for colony formation.
# as §2
# (§5) In further tests, cells were treated with the platinum compounds continuously for 7 days. Colonies were fixed and stained using 2% crystal violet in 4% formaldehyde. Colonies containing more than 50 cells were scored. The number of scored colonies from the triplicate plates was averaged, and this number was divided by the number of cells plated to obtain a value for the fraction of cells forming colonies. These values for fraction of cells forming colonies then were corrected for plating efficiency by dividing the fraction by the number of cells forming colonies in plates that were not treated with platinum compounds. […] Similar data for OVCAR-10 are shown in FIG. 3, comparing (1R,2R)-pyrodach-2 (RD2), (1R,2R)-pyrodach-4 (RD4), trans-(±)-pyrodach-2 (T-D2), and trans-(±)-pyrodach-4 (T-D4).
# [3] = tested on: A549, human lung adenocarcinoma cancer cells; assay: CyQUANT cell proliferation assay, A549; format: cell-based; conditions: A549, 72-hour treatment
# Description: as §1, §2
# [4] = tested on: OVCAR-10, human ovarian cancer resistant to cisplatin treatment; assay: CyQUANT cell proliferation assay, OVCAR-10; format: cell-based; conditions: OVCAR-10, 72-hour treatment
# Description: as §1, §2
# Ovarian tumor = Ovarian tumor inflicted SCID mice, tumor growth and log cell kill; format: in vivo; conditions: 7 mg/kg
# Method: Ovarian tumor inflicted SCID mice were treated with trans-(±)-pyrodach-2 and trans-(±)-pyrodach-4 at various doses up to 40 mg/kg, and tumor growth was monitored up to six weeks or until the tumor size became so large that these animals were sacrificed. The tumor growth or regression by the phosphaplatin-treated mice was then compared with cisplatin-treated mice (7 mg/kg) and carboplatin-treated mice (60 mg/kg). Three doses of platinum compounds were administered on alternate days when the tumor grew to a size of at least 100 mm^3 size. Gross and net log cell kill values were then calculated using the formulas:
# [formula] [formula] where T and C are median times in days to grow tumor to a specified size, and Td is the median time in days to double the size of the tumor in control animals.
# [5] = tested on: SKMEL-2, human skin melanoma cancer cells; assay: CyQUANT cell proliferation assay, SKMEL-2; format: cell-based; conditions: SKMEL-2, 72-hour treatment
# Description: as §1, §2
# [6] = tested on: U251, human glioblastoma cancer cells; assay: CyQUANT cell proliferation assay, U251; format: cell-based; conditions: U251, 72-hour treatment
# Description: as §1, §2
# [7] = tested on: OVCAR-10, human ovarian cancer resistant to cisplatin treatment; assay: Clonogenic assay, OVCAR-10 cells; format: cell-based; conditions: OVCAR-10, 24 hours treatment
# Method: as §3
# Half-maximal inhibitory concentration (IC50) values were determined using a clonogenic assay or a CyQUANT® cell proliferation assay. In the clonogenic assay, for example, 500-700 A2780 cells from a single cell suspension were plated onto 60 mm petri plates 24 hours before treatment with the platinum compounds to permit cell attachment. On the day of treatment with the platinum compounds described in the above Synthesis Examples, the medium was decanted and was replaced with the appropriate concentration of phosphaplatin compounds (from 50 nM to 75 μM) at three different time points, and the treated cells were placed back into the 37° C. incubator for 24 hours. Triplicate plates were set up for each platinum compound concentration. After the 24-hour treatment, the medium containing the platinum compounds was decanted and was replaced with fresh medium. These plates were returned to the 37° C. incubator for 7 days for colony formation.
# as §2, §5
# [8] = tested on: A2780, epithelial human ovarian cancer; assay: Clonogenic assay, A2780 cells; format: cell-based
# Method: as §3
# as §4, with “After the 24-hour treatment, the medium containing the platinum compounds was decanted and was replaced with fresh medium.” left out
# as §2, §5
# [9] = tested on: OVCAR-8, human ovarian cancer cells with dysfunctional p53; assay: CyQUANT cell proliferation assay, OVCAR-8; format: cell-based; conditions: OVCAR-8, 72-hour treatment
# Description: as §1, §2
# [10] = tested on: human colon cancer cell lines (HT-29); assay: CyQUANT cell proliferation assay, HT-29; format: cell-based; conditions: HT-29, 72 hours
# Description: as §1, §2
# [11] = tested on: MCF-7, human breast cancer cells; assay: CyQUANT cell proliferation assay, MCF-7; format: cell-based; conditions: MCF-7, 72-hour treatment
# Description: as §1, §2
compound,measurement,setting,value
N.N.[Cl][Pt][Cl] [cisplatin],IC50,[1],1.08 µM
same,IC50,[2],100 µM
same,IC50,[3],2.8 µM
same,IC50,[4],3.1 µM
same,time to death of treated mice,Ovarian tumor,≤ 7 days
same,tumor response,Ovarian tumor,tumor regression
same,IC50,[5],5.34 µM
same,IC50,[6],0.75 µM
same,IC50,[7],4.1 µM
same,IC50,"[8]; A2780, 1 hour treatment",7 µM
same,IC50,"[8]; A2780, 24 hours treatment",5 µM
same,IC50,[9],6.3 µM
same,IC50,[10],6.5 µM
same,IC50,[11],5.1 µM
